From PubChem BioAssay (NCI)
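Results reflect a 48-hour exposure of cells in 96-well plates to compound at five concentrations. Here, GI50 denotes the concentration required for 50% inhibition of growth. The concentration for full growth arrest is given as TGI.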

Experiments:
Test in all cases: NCI anticancer screen, dose series, 48 h; in the data active = GI50 below about 0.43 µM; inactive = the rest
A549 NSCLC = test system: A549 NSCLC
UACC-257 melanoma = test system: UACC-257 melanoma
BT-549 breast = test system: BT-549 breast
OVCAR-8 ovarian = test system: OVCAR-8 ovarian
K-562 leukemia = test system: K-562 leukemia
SF-539 CNS = test system: SF-539 CNS
NCI-H460 lung = test system: NCI-H460 lung
RPMI-8226 leukemia = test system: RPMI-8226 leukemia
HT29 colon = test system: HT29 colon
T-47D breast = test system: T-47D breast
OVCAR-5 ovarian = test system: OVCAR-5 ovarian
KM12 colon = test system: KM12 colon
SK-MEL-2 melanoma = test system: SK-MEL-2 melanoma
SNB-19 CNS = test system: SNB-19 CNS
IGROV1 ovarian = test system: IGROV1 ovarian
NCI-H522 lung = test system: NCI-H522 lung
NCI/ADR-RES ovarian = test system: NCI/ADR-RES ovarian
LOX IMVI melanoma = test system: LOX IMVI melanoma
MDA-MB-231 breast = test system: MDA-MB-231 breast
HCT-116 colon = test system: HCT-116 colon
SK-MEL-28 melanoma = test system: SK-MEL-28 melanoma
ACHN renal = test system: ACHN renal
DU-145 prostate = test system: DU-145 prostate
MOLT-4 leukemia = test system: MOLT-4 leukemia
UO-31 renal = test system: UO-31 renal
MCF7 breast = test system: MCF7 breast
PC-3 prostate = test system: PC-3 prostate
SR leukemia = test system: SR leukemia
OVCAR-4 ovarian = test system: OVCAR-4 ovarian
SW-620 colon = test system: SW-620 colon
786-0 renal = test system: 786-0 renal
A498 renal = test system: A498 renal
SN12C renal = test system: SN12C renal
HOP-92 NSCLC = test system: HOP-92 NSCLC
RXF 393 renal = test system: RXF 393 renal
U251 CNS = test system: U251 CNS
NCI-H226 lung = test system: NCI-H226 lung
MALME-3M melanoma = test system: MALME-3M melanoma
HCC-2998 colon = test system: HCC-2998 colon
CAKI-1 renal = test system: CAKI-1 renal
HCT-15 colon = test system: HCT-15 colon
SF-295 CNS = test system: SF-295 CNS
HOP-62 NSCLC = test system: HOP-62 NSCLC
TK-10 renal = test system: TK-10 renal
SK-MEL-5 melanoma = test system: SK-MEL-5 melanoma
HL-60(TB) leukemia = test system: HL-60(TB) leukemia
SNB-75 CNS = test system: SNB-75 CNS
CCRF-CEM leukemia = test system: CCRF-CEM leukemia
SK-OV-3 ovarian = test system: SK-OV-3 ovarian
HS 578T breast = test system: HS 578T breast
SF-268 CNS = test system: SF-268 CNS
NCI-H23 lung = test system: NCI-H23 lung
UACC-62 melanoma = test system: UACC-62 melanoma
M14 melanoma = test system: M14 melanoma
OVCAR-3 ovarian = test system: OVCAR-3 ovarian
COLO 205 colon = test system: COLO 205 colon

COc1ccc2c(=O)cc(C(Cl)(Cl)Cl)oc2c1
48.6 µM: TGI (HS 578T breast)
10.4 µM: TGI (OVCAR-8 ovarian)
15.7 µM: TGI (UO-31 renal)
13 µM: TGI (SF-295 CNS)
55.3 µM: TGI (T-47D breast)
836 nM: TGI (HL-60(TB) leukemia)
14.9 µM: TGI (MDA-MB-231 breast)
5.03 µM: TGI (LOX IMVI melanoma)
833 nM: TGI (SK-MEL-5 melanoma)
19.3 µM: TGI (NCI-H23 lung)
inactive: GI50 (A549 NSCLC) 444 nM | GI50 (UACC-257 melanoma) 12 µM | GI50 (T-47D breast) 12.2 µM | GI50 (SK-MEL-2 melanoma) 488 nM | GI50 (SNB-19 CNS) 3.77 µM | GI50 (IGROV1 ovarian) 633 nM | GI50 (SK-MEL-28 melanoma) 0.632 µM | GI50 (UO-31 renal) 637 nM | GI50 (SN12C renal) 519 nM | GI50 (RXF 393 renal) 676 nM | GI50 (U251 CNS) 1140 nM | GI50 (NCI-H226 lung) 14.8 µM | GI50 (MALME-3M melanoma) 5.71 µM | GI50 (SF-295 CNS) 1270 nM | GI50 (HOP-62 NSCLC) 1040 nM | GI50 (TK-10 renal) 8.36 µM | GI50 (SK-OV-3 ovarian) 511 nM | GI50 (HS 578T breast) 979 nM | GI50 (UACC-62 melanoma) 438 nM
11.3 µM: TGI (HCC-2998 colon)
14.6 µM: TGI (MCF7 breast) | TGI (CAKI-1 renal)
17.5 µM: TGI (UACC-62 melanoma)
10.6 µM: TGI (BT-549 breast)
11.9 µM: TGI (SN12C renal)
10.9 µM: TGI (HT29 colon)
23.3 µM: TGI (HOP-92 NSCLC)
18.9 µM: TGI (PC-3 prostate)
27.6 µM: TGI (HOP-62 NSCLC)
26.4 µM: TGI (SK-MEL-2 melanoma)
583 nM: TGI (SF-539 CNS)
31.5 µM: TGI (SK-OV-3 ovarian)
3.82 µM: TGI (RPMI-8226 leukemia)
4.44 µM: TGI (MOLT-4 leukemia)
12.5 µM: TGI (KM12 colon)
15.5 µM: TGI (A549 NSCLC)
active: GI50 (BT-549 breast) 336 nM | GI50 (OVCAR-8 ovarian) 0.338 µM | GI50 (K-562 leukemia) 52.5 nM | GI50 (SF-539 CNS) 208 nM | GI50 (NCI-H460 lung) 364 nM | GI50 (RPMI-8226 leukemia) 389 nM | GI50 (HT29 colon) 345 nM | GI50 (OVCAR-5 ovarian) 385 nM | GI50 (KM12 colon) 320 nM | GI50 (NCI-H522 lung) 228 nM | GI50 (NCI/ADR-RES ovarian) 296 nM | GI50 (LOX IMVI melanoma) 173 nM | GI50 (MDA-MB-231 breast) 333 nM | GI50 (HCT-116 colon) 299 nM | GI50 (ACHN renal) 412 nM | GI50 (DU-145 prostate) 309 nM | GI50 (MOLT-4 leukemia) 0.302 µM | GI50 (MCF7 breast) 262 nM | GI50 (PC-3 prostate) 390 nM | GI50 (SR leukemia) 58 nM | GI50 (OVCAR-4 ovarian) 423 nM | GI50 (SW-620 colon) 237 nM | GI50 (786-0 renal) 324 nM | GI50 (A498 renal) 213 nM | GI50 (HOP-92 NSCLC) 361 nM | GI50 (HCC-2998 colon) 400 nM | GI50 (CAKI-1 renal) 376 nM | GI50 (HCT-15 colon) 240 nM | GI50 (SK-MEL-5 melanoma) 278 nM | GI50 (HL-60(TB) leukemia) 269 nM | GI50 (SNB-75 CNS) 327 nM | GI50 (CCRF-CEM leukemia) 309 nM | GI50 (SF-268 CNS) 0.377 µM | GI50 (NCI-H23 lung) 409 nM
14.3 µM: TGI (HCT-116 colon)
8.63 µM: TGI (NCI-H460 lung)
14.5 µM: TGI (SW-620 colon)
23.2 µM: TGI (SK-MEL-28 melanoma)
683 nM: TGI (NCI-H522 lung)
15.6 µM: TGI (SF-268 CNS)
30.7 µM: TGI (OVCAR-4 ovarian)
11.1 µM: TGI (U251 CNS)
14.1 µM: TGI (786-0 renal)
20.4 µM: TGI (RXF 393 renal)
> 100 µM: TGI (K-562 leukemia)
3.36 µM: TGI (A498 renal)
40.4 µM: TGI (TK-10 renal)
14.2 µM: TGI (NCI/ADR-RES ovarian) | TGI (HCT-15 colon)
35.6 µM: TGI (MALME-3M melanoma)
48.1 µM: TGI (SNB-19 CNS)
21.3 µM: TGI (IGROV1 ovarian)
15.1 µM: TGI (SNB-75 CNS)
13.8 µM: TGI (ACHN renal)
971 nM: TGI (DU-145 prostate)
41.6 µM: TGI (UACC-257 melanoma)
91.5 µM: TGI (SR leukemia)
35.8 µM: TGI (NCI-H226 lung)
15.8 µM: TGI (OVCAR-5 ovarian)

Nc1c(C(=O)Nc2cccc(F)c2)sc2nc3c(cc12)C(=O)CCC3
> 75 µM: TGI (K-562 leukemia)
> 69 µM: TGI (U251 CNS)
inactive: GI50 (BT-549 breast) 3710 nM | GI50 (OVCAR-8 ovarian) 31.1 µM | GI50 (RPMI-8226 leukemia) > 34500 nM | GI50 (OVCAR-5 ovarian) 2240 nM | GI50 (SK-MEL-2 melanoma) 492 nM | GI50 (SNB-19 CNS) 29.5 µM | GI50 (IGROV1 ovarian) 3020 nM | GI50 (NCI/ADR-RES ovarian) 487 nM | GI50 (LOX IMVI melanoma) 772 nM | GI50 (MDA-MB-231 breast) 1670 nM | GI50 (HCT-116 colon) 447 nM | GI50 (SK-MEL-28 melanoma) 20.5 µM | GI50 (ACHN renal) 842 nM | GI50 (MOLT-4 leukemia) 21.9 µM | GI50 (SR leukemia) 481 nM | GI50 (OVCAR-4 ovarian) > 55100 nM | GI50 (786-0 renal) 595 nM | GI50 (SN12C renal) 743 nM | GI50 (HOP-92 NSCLC) 589 nM | GI50 (U251 CNS) 488 nM | GI50 (NCI-H226 lung) > 90.1 µM | GI50 (HCC-2998 colon) 1010 nM | GI50 (HOP-62 NSCLC) 685 nM | GI50 (TK-10 renal) > 100 µM | GI50 (SK-OV-3 ovarian) 436 nM | GI50 (HS 578T breast) 634 nM | GI50 (SF-268 CNS) 37 µM | GI50 (NCI-H23 lung) 608 nM | GI50 (UACC-62 melanoma) 491 nM
> 80 µM: TGI (SF-295 CNS)
> 75.2 µM: TGI (MDA-MB-231 breast)
> 56.5 µM: TGI (SNB-75 CNS)
751 nM: TGI (COLO 205 colon)
> 100000 nM: TGI (SF-539 CNS) | TGI (NCI-H522 lung) | TGI (DU-145 prostate) | TGI (SK-MEL-5 melanoma) | TGI (HL-60(TB) leukemia)
> 70.6 µM: TGI (SR leukemia)
> 100 µM: TGI (A549 NSCLC) | TGI (BT-549 breast) | TGI (OVCAR-8 ovarian) | TGI (NCI-H460 lung) | TGI (RPMI-8226 leukemia) | TGI (HT29 colon) | TGI (T-47D breast) | TGI (OVCAR-5 ovarian) | TGI (KM12 colon) | TGI (SNB-19 CNS) | TGI (IGROV1 ovarian) | TGI (NCI/ADR-RES ovarian) | TGI (LOX IMVI melanoma) | TGI (HCT-116 colon) | TGI (SK-MEL-28 melanoma) | TGI (ACHN renal) | TGI (MOLT-4 leukemia) | TGI (M14 melanoma) | TGI (UO-31 renal) | TGI (MCF7 breast) | TGI (PC-3 prostate) | TGI (OVCAR-4 ovarian) | TGI (SW-620 colon) | TGI (786-0 renal) | TGI (A498 renal) | TGI (OVCAR-3 ovarian) | TGI (SN12C renal) | TGI (HOP-92 NSCLC) | TGI (NCI-H226 lung) | TGI (MALME-3M melanoma) | TGI (HCC-2998 colon) | TGI (CAKI-1 renal) | TGI (HCT-15 colon) | TGI (HOP-62 NSCLC) | TGI (TK-10 renal) | TGI (CCRF-CEM leukemia) | TGI (SK-OV-3 ovarian) | TGI (HS 578T breast) | TGI (SF-268 CNS) | TGI (NCI-H23 lung) | TGI (UACC-62 melanoma)
active: GI50 (A549 NSCLC) 378 nM | GI50 (K-562 leukemia) 160 nM | GI50 (SF-539 CNS) 287 nM | GI50 (NCI-H460 lung) 356 nM | GI50 (HT29 colon) 307 nM | GI50 (KM12 colon) 384 nM | GI50 (NCI-H522 lung) 371 nM | GI50 (DU-145 prostate) 354 nM | GI50 (M14 melanoma) 397 nM | GI50 (MCF7 breast) 304 nM | GI50 (PC-3 prostate) 347 nM | GI50 (SW-620 colon) 350 nM | GI50 (A498 renal) 27.4 nM | GI50 (OVCAR-3 ovarian) 351 nM | GI50 (RXF 393 renal) 248 nM | GI50 (MALME-3M melanoma) 0.377 µM | GI50 (COLO 205 colon) 273 nM | GI50 (CAKI-1 renal) 387 nM | GI50 (HCT-15 colon) 298 nM | GI50 (SF-295 CNS) 245 nM | GI50 (SK-MEL-5 melanoma) 391 nM | GI50 (HL-60(TB) leukemia) 322 nM | GI50 (SNB-75 CNS) 339 nM | GI50 (CCRF-CEM leukemia) 341 nM
> 81.6 µM: TGI (SK-MEL-2 melanoma)
